Like-named read-outs stand apart in the source and are kept apart here.

Series [1] relates to A2780 E6 (A2780 subline transfected with E6 human papillomavirus gene). As to the kind of experiment: Growth inhibition (sulforhodamine B assay), A2780E6. Format: cell-based.
The test system of series [2] is A2780cisR acquired cisplatin resistant subline. The experiment in a line: Growth inhibition (sulforhodamine B assay), A2780cisR. The following applies: for IC50: A2780cisR, drug alone. Format: cell-based, human. On the procedure: (§1) Growth inhibition (using the sulforhodamine B assay) was determined for ZDO473 alone, and combined either simultaneously or administered sequentially (following washing) for 24 hours with paclitaxel. The effect of the drug combinations was analysed using median effect analysis.
Background: Sulforhodamine B stains cellular protein and so reports cell mass.

Series [3] deals with CH1 human ovarian carcinoma cell line. The experiment in a line: cells. The following applies: read-out: IC50 growth inhibition. On the procedure:
as §1

In series [4] the test system is A2780 human ovarian carcinoma cell line. The experiment in a line: cells. On the procedure: as §1
For series [5] the following is noted: monotherapy Phase I trial, interim results; cited from earlier work.
In the next series the test system is human tumour xenografts. As to the kind of experiment: In-vivo studies in human tumour xenografts. The following applies: compared with cisplatin. In general terms: In xenograft studies the graft and the host belong to different species.
In series [6] the test system is cisplatin-resistant CH1 ovarian tumour xenograft. The experiment in a line: Cisplatin-resistant CH1 ovarian tumour xenograft. The following applies: even when progressing on cisplatin treatment.
Another series relates to 41McisR ovarian line. The following applies: resistance to cisplatin due to reduced uptake.
For another series, the system named is ADJ/PC6cisR tumour. The experiment in a line: Murine acquired cisplatin resistant tumour. The following applies: tumour totally resistant to other platinum agents.

Consider `CC(=O)O[C@H]1C(=O)[C@@]2(C)[C@H]([C@H](OC(=O)c3ccccc3)[C@]3(O)C[C@H](OC(=O)[C@H](O)[C@@H](NC(=O)c4ccccc4)c4ccccc4)C(C)=C1C3(C)C)[C@]1(OC(C)=O)CO[C@@H]1C[C@@H]2O` [Paclitaxel, paclitaxel, reference compound], for which the IC50 (as a rule, the concentration at which inhibition is half-maximal) in series [1] (Homo sapiens, A2780/E6, drug alone) is 20.8 nM; in series [2] (Homo sapiens) it was 3.5 nM; in series [3] (Homo sapiens, Ovarian carcinoma cell) it was 3.1 nM; in series [4] (Homo sapiens, A2780, read-out: IC50 growth inhibition), 2.5 nM.
For `Cc1ccccn1.N.[Cl-].[Cl-].[Pt+2]` [ZDO473, (SP-4-3)-(cis-amminedichloro-[2-methylpyridine]platinum (II)], the IC50 in series [1] (96 hour continuous exposure, drug alone) is 8600 nM; in series [2] (96 hour continuous exposure) it was 15600 nM; in [3] (CH1, 96 hour continuous exposure, drug alone), 3300 nM; in series [4] (read-out: IC50 growth inhibition, A2780, 96 hour continuous exposure, drug alone) it was 3700 nM. In [5], the dose-limiting toxicity result is listed as “bone marrow suppression”. Further, the “kidney or nerve toxicity” value in [5] is given as “no evidence of kidney or nerve toxicity”. The “cross-resistance of A2780cisR” value in [2] (A2780cisR versus A2780) was determined as 4.2 fold. The “activity in human tumour xenografts” value in the series with human tumour xenografts was “at least comparable and in some cases superior to that of cisplatin”. Moreover, the “activity versus cisplatin-resistant xenograft” value in series [6] was “Activity was retained”. Also, in the series on 41McisR ovarian line, the “ability to overcome cisplatin resistance” value was “showed the ability to overcome resistance”. Further, the “recommended dose for phase II studies, initial” value (every 3 weeks) amounted to 120 mg/m^2. The current recommended dose (patients who tolerate higher doses) is listed as 150 mg/m^2. Also, the “antitumour activity in patients” value (small & non-small cell lung cancer, mesothelioma, head and neck, breast and ovarian cancers) is on record as “Evidence of antitumour activity has been observed”. In addition, the “activity against acquired cisplatin resistant murine tumour” value with ADJ/PC6cisR tumour is given as “some activity was seen”.
`N.N.[Cl][Pt][Cl]` [cisplatin, cis-dichlorodiammine platinum (II), reference compound]: the “acquired cisplatin resistance of subline” value in series [2] (A2780cisR versus A2780) is 15 fold.

The values above are taken from patent US20040053882A1, “Combination chemotherapy” (priority 2000, published 2004).
